For the experiment, the target named is Mitogen-activated protein kinase kinase kinase kinase 1 (Homo sapiens, UniProt Q92918). As to the kind of experiment: Biochemical Enzyme Assay: HPK1 biochemical enzyme assay: HPK1 enzyme inhibition was measured using a microfluidic mobility shift assay. […] Test compounds were titrated in ten point curves (top final assay concentration 3 μM), and preincubated with enzyme/substrate mix for 30 min prior to initiation of the reaction by addition of ATP (1 mM final concentration) and substrate (1 μM final concentration; Carna Biosciences) diluted in assay buffer supplemented by MgCl2 (final assay concentration of 5 mM). Following 60 min incubation at RT, the reaction was terminated by addition of 60 µl/well termination buffer (Carna Biosciences) and signal determination using aCaliper EZ Reader (Perkin Elmer, UK).

We go through 26 molecules from ChEMBL document CHEMBL5728495, “Substituted isoindolin-1-ones and 2,3-dihydro-1h-pyrrolo[3,4-c]pyridin-1-ones as HPK1 antagonists” (2021).

For orientation: IC50 means the concentration at which inhibition is half-maximal.

Where only a bound is given, the exact number is not on record here.

Chain of Mitogen-activated protein kinase kinase kinase kinase 1 (Q92918 whole entry): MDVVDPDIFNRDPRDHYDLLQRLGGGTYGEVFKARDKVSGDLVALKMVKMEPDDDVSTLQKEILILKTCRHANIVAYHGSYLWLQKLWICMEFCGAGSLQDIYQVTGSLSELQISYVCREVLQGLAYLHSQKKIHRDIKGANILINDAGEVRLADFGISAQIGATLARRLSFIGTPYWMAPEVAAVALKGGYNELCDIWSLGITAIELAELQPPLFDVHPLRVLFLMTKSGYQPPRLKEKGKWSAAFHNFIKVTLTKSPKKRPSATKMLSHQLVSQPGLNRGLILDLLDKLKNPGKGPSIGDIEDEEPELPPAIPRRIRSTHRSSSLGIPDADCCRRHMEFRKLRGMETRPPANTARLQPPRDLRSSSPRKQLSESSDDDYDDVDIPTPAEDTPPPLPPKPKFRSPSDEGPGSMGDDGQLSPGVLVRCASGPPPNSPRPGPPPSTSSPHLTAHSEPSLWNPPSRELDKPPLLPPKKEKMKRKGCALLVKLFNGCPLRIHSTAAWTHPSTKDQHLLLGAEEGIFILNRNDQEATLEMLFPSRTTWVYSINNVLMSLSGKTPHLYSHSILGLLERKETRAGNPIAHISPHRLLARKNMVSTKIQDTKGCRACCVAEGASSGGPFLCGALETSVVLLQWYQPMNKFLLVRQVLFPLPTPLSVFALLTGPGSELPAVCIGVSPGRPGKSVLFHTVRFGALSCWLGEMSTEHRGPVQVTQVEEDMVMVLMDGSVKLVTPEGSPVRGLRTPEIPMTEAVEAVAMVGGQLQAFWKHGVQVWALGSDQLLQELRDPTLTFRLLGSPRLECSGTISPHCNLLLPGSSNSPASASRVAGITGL

With `COCC1(O)CCN(c2ccc(Nc3ccc(-c4cnc5cc(F)ccn45)c4c3C(=O)NC4)nc2)CC1`, the IC50 was under 100 nM.
Turning to `O=C1NCc2c(-c3cnc4cc(F)ccn34)ccc(Nc3ccc([C@]4(O)CCOC4)cn3)c21`, the IC50 is under 100 nM.
In the case of `Cn1ccc2c(-c3ccc(Nc4ccc(N5CCO[C@H](C(C)(C)O)C5)cn4)c4c3CNC4=O)ncnc21`, the IC50 is under 100 nM.
On to `Cn1ccc2c(-c3ncc(Nc4ccc(N5CCOCC5)cn4)c4c3CNC4=O)ccnc21`, for which the IC50 was under 100 nM.
Next, `CN(C)C[C@H]1CN(c2ccc(Nc3cnc(-c4ccnc5c4ccn5C)c4c3C(=O)NC4)nc2)CCO1`: under 100 nM; `CN(C)CCc1nc(Nc2ccc(-c3cnc4cc(F)ccn34)c3c2C(=O)NC3)ccc1[C@H]1CCOC1`: under 100 nM; `CN(C)CCc1nc(Nc2ccc(-c3cnc4cc(F)ccn34)c3c2C(=O)NC3)ccc1[C@@H]1CCOC1`: under 100 nM.
On to `Cc1ccn2c(-c3ccc(Nc4ccc(N5CCC[C@](O)(CN(C)C)C5)cn4)c4c3CNC4=O)cnc2c1F`, for which the IC50 is under 100 nM.
On to `C[C@@H]1CCn2ncc(-c3ccc(Nc4ccc(N5CCN(C)CC5)cn4)c4c3CNC4=O)c2C1`, for which the IC50 is under 100 nM.
As for `COc1cc(Nc2ccc(-c3ccnc4c3ccn4C)c3c2C(=O)NC3)ncc1N1CCC(O)CC1`, the half-inhibitory concentration (IC50) was under 100 nM.
Next, `O=C1NCc2c(-c3cnc4ccccn34)ncc(Nc3ccc(N4CC[C@@H](F)[C@H](O)C4)cn3)c21`: under 100 nM; `CN(C)C[C@H]1CN(c2ccc(Nc3ccc(-c4cnc5cc(Cl)ccn45)c4c3C(=O)NC4)nc2)CCO1`: under 100 nM; `CC(C)(NC1CC1)C1CN(c2ccc(Nc3ccc(-c4cnc5cc(F)ccn45)c4c3C(=O)NC4)nc2)CCO1` (stereo unspecified): under 100 nM.
`O=C1NCc2c(-c3cnc4cc(F)ccn34)ccc(Nc3ccc([C@@]4(O)CCOC4)cn3)c21`: the half-maximal inhibitory concentration (IC50) was under 100 nM.
Next, `Cn1ccc2c(-c3ccc(Nc4ccc(N5CCO[C@@H](C(C)(C)O)C5)cn4)c4c3CNC4=O)ncnc21`: under 100 nM; `COC1(CO)CCN(c2ccc(Nc3ccc(-c4cnc5cc(F)ccn45)c4c3C(=O)NC4)nc2)CC1`: under 100 nM; `Cc1ccn2c(-c3ccc(Nc4ccc(N5CCC[C@@](O)(CN(C)C)C5)cn4)c4c3CNC4=O)cnc2c1F`: under 100 nM.
The result for `CCN(C)Cc1nc(Nc2ccc(-c3cnc4cc(F)ccn34)c3c2C(=O)NC3)ccc1[C@H]1CCOC1` reads under 100 nM.
Consider `O=C1NCc2c(-c3cnc4ccccn34)ncc(Nc3ccc(C4(O)CCOCC4)cn3)c21`, for which the half-maximal inhibitory concentration (IC50) was under 100 nM.
On to `Cc1cc(Nc2ccc(N3CCC(O)CC3)cn2)c2c(c1-c1cccc3c1ccn3C)CNC2=O`, for which the 50% inhibitory concentration (IC50) was under 100 nM.
The result for `CN(C)C1(c2ccc(Nc3ccc(-c4cnc5cc(F)ccn45)c4c3C(=O)NC4)nc2)CCOCC1` reads under 100 nM; that for `CN1CC[C@H](c2ccc(Nc3cnc(-c4ccnc5c4ccn5C)c4c3C(=O)NC4)nc2)CC1=O`, under 100 nM; that for `Cn1ccc2c(-c3ncc(Nc4ccc(N5CCC(C)(O)CC5)cn4)c4c3CNC4=O)ccnc21`, under 100 nM.
For the molecule `CN(C)C[C@@H]1CN(c2ccc(Nc3cnc(-c4ccnc5c4ccn5C)c4c3C(=O)NC4)nc2)CCO1`, the 50% inhibitory concentration (IC50) was under 100 nM.
As for `O=C1NCc2c(-c3cnc4cc(C(F)F)ccn34)ccc(Nc3ccc([C@]4(O)CCOC4)cn3)c21`, the IC50 is under 100 nM.
Consider `CN1CC[C@@H](c2ccc(Nc3cnc(-c4ccnc5c4ccn5C)c4c3C(=O)NC4)nc2)CC1=O`, for which the IC50 is under 100 nM.
